Like-named read-outs stand apart in the source and are kept apart here.
Key:
MV4-11 = assay: Growth suppressive activity test against cancer cells (WST-8), MV4-11; format: cell-based, human
Method: (§1) Using RPMI 1640 medium (manufactured by SIGMA) supplemented with 10% fetal bovine serum, human promyelocytic leukemia-derived cell line HL-60, human acute lymphoblastic leukemia-derived cell line MOLT4, human Burkitt's lymphoma-derived cell line Daudi, and human multiple myeloma-derived cell line RPMI-8226 were respectively cultured at 37° C., 5% CO2. In addition, using ISKOV medium (manufactured by SIGMA) supplemented with 10% fetal bovine serum, human chronic myeloid leukemia-derived cell line MV4-11 was cultured at 37° C., 5% CO2. Moreover, using DMEM/F-12 medium (manufactured by SIGMA) supplemented with 10% fetal bovine serum, human lung cancer cell-derived cell line EBC-1, human hepatocellular cancer-derived cell line Kim-1, human colorectal cancer-derived cell line HCT-116, human prostate cancer-derived cell line PC-3, human ovarian cancer-derived cell line A2780, and human osteosarcoma-derived cell line Saos2 were respectively cultured at 37° C., 5% CO2. These cells were plated on a 96 well plate, and cultured for 1 day. Thereto was added a compound diluted with the medium to a final concentration of 0.0003-10 μm (final DMSO concentration, 0.4%). After culture for 3 more days, WST-8 (0.16 mg/mL) was added to the culture medium and the cells were cultured for 2 hr. The absorbance at 650 nm was subtracted from the absorbance at 450 nm. The growth suppressive activity was shown by a decrease rate of the absorbance of the compound addition group to that of the compound non-addition group, and GI50 value was determined from a dose-reaction curve plotting a decrease rate of the absorbance obtained by changing the compound concentration and the compound concentrations.

BRD4 = BRD4 (Homo sapiens (Human), UniProt O60885); assay: Binding inhibitory test of acetylated histone H4 and BRD4 (TR-FRET); conditions: CHO cell lysate with Flag-BRD4, biotin-labeled acetylated histone H4 peptide
Method: An expression vector containing cDNA of BRD2, 3 and 4 added with Flag-tag was transfected to CHO cell, and a cell lysate was prepared 24 hr later. Binding of acetylated histone H4 and BRD was confirmed by a Time Resolved Fluorescence Resonance Energy Transfer (TR-FRET) method. To a 384-well white plate (manufactured by Coaster) were added 50 nmol/L biotin-labeled acetylated histone H4 peptide (manufactured by Upstate) and a serially diluted test compound.

EBC-1 = assay: Growth suppressive activity test against cancer cells (WST-8), EBC-1; format: cell-based; conditions: Homo sapiens, 72 h, EBC-1, non-small cell lung cancer, 3 days culture, read-out: cell proliferation suppressive activity GI50
Method: as §1, with “These cells were plated on a 96 well plate, and cultured for 1 day. Thereto was added a compound diluted with the medium to a final concentration of 0.0003-10 μm (final DMSO concentration, 0.4%). After culture for 3 more days, WST-8 (0.16 mg/mL) was added to the culture medium and the cells were cultured for 2 hr.” left out

PC-3 = assay: Growth suppressive activity test against cancer cells (WST-8), PC-3; format: cell-based; conditions: Homo sapiens, 72 h, PC-3, prostate cancer, 3 days culture, read-out: cell proliferation suppressive activity GI50
Method: as §1, with “These cells were plated on a 96 well plate, and cultured for 1 day. Thereto was added a compound diluted with the medium to a final concentration of 0.0003-10 μm (final DMSO concentration, 0.4%). After culture for 3 more days, WST-8 (0.16 mg/mL) was added to the culture medium and the cells were cultured for 2 hr.” left out

Daudi = assay: Growth suppressive activity test against cancer cells (WST-8), Daudi; format: cell-based; conditions: Homo sapiens, 72 h, Burkitt's lymphoma, 3 days culture, read-out: cell proliferation suppressive activity GI50
Method: as §1, with “These cells were plated on a 96 well plate, and cultured for 1 day. Thereto was added a compound diluted with the medium to a final concentration of 0.0003-10 μm (final DMSO concentration, 0.4%). After culture for 3 more days, WST-8 (0.16 mg/mL) was added to the culture medium and the cells were cultured for 2 hr.” left out

A-2780 = assay: Growth suppressive activity test against cancer cells (WST-8), A-2780; format: cell-based; conditions: Homo sapiens, A2780, 72 h, A-2780, ovarian cancer, 3 days culture, read-out: cell proliferation suppressive activity GI50
Method: as §1, with “These cells were plated on a 96 well plate, and cultured for 1 day. Thereto was added a compound diluted with the medium to a final concentration of 0.0003-10 μm (final DMSO concentration, 0.4%). After culture for 3 more days, WST-8 (0.16 mg/mL) was added to the culture medium and the cells were cultured for 2 hr.” left out

HCT-116 = assay: Growth suppressive activity test against cancer cells (WST-8), HCT-116; format: cell-based; conditions: Homo sapiens, 72 h, HCT-116, colorectal cancer, 3 days culture, read-out: cell proliferation suppressive activity GI50
Method: as §1, with “These cells were plated on a 96 well plate, and cultured for 1 day. Thereto was added a compound diluted with the medium to a final concentration of 0.0003-10 μm (final DMSO concentration, 0.4%). After culture for 3 more days, WST-8 (0.16 mg/mL) was added to the culture medium and the cells were cultured for 2 hr.” left out

Kim-1 = assay: Growth suppressive activity test against cancer cells (WST-8), Kim-1; format: cell-based; conditions: Homo sapiens, 72 h, Kim-1, hepatocellular cancer, 3 days culture, read-out: cell proliferation suppressive activity GI50
Method: as §1, with “These cells were plated on a 96 well plate, and cultured for 1 day. Thereto was added a compound diluted with the medium to a final concentration of 0.0003-10 μm (final DMSO concentration, 0.4%). After culture for 3 more days, WST-8 (0.16 mg/mL) was added to the culture medium and the cells were cultured for 2 hr.” left out

MOLT-4 = assay: Growth suppressive activity test against cancer cells (WST-8), MOLT-4; format: cell-based; conditions: Homo sapiens, 72 h, MOLT-4, acute lymphoblastic leukemia, 3 days culture, read-out: cell proliferation suppressive activity GI50
Method: as §1, with “These cells were plated on a 96 well plate, and cultured for 1 day. Thereto was added a compound diluted with the medium to a final concentration of 0.0003-10 μm (final DMSO concentration, 0.4%). After culture for 3 more days, WST-8 (0.16 mg/mL) was added to the culture medium and the cells were cultured for 2 hr.” left out

RPMI-8226 = assay: Growth suppressive activity test against cancer cells (WST-8), RPMI-8226; format: cell-based; conditions: Homo sapiens, 72 h, RPMI-8226, multiple myeloma, 3 days culture, read-out: cell proliferation suppressive activity GI50
Method: as §1, with “These cells were plated on a 96 well plate, and cultured for 1 day. Thereto was added a compound diluted with the medium to a final concentration of 0.0003-10 μm (final DMSO concentration, 0.4%). After culture for 3 more days, WST-8 (0.16 mg/mL) was added to the culture medium and the cells were cultured for 2 hr.” left out

HL-60 = assay: Growth suppressive activity test against cancer cells (WST-8), HL-60; format: cell-based; conditions: Homo sapiens, 72 h, HL-60, promyelocytic leukemia, 3 days culture, read-out: cell proliferation suppressive activity GI50
Method: as §1, with “These cells were plated on a 96 well plate, and cultured for 1 day. Thereto was added a compound diluted with the medium to a final concentration of 0.0003-10 μm (final DMSO concentration, 0.4%). After culture for 3 more days, WST-8 (0.16 mg/mL) was added to the culture medium and the cells were cultured for 2 hr.” left out

Saos2 = assay: Growth suppressive activity test against cancer cells (WST-8), Saos2; format: cell-based; conditions: Homo sapiens, SAOS-2, 72 h, Saos2, osteosarcoma, 3 days culture, read-out: cell proliferation suppressive activity GI50
Method: as §1, with “These cells were plated on a 96 well plate, and cultured for 1 day. Thereto was added a compound diluted with the medium to a final concentration of 0.0003-10 μm (final DMSO concentration, 0.4%). After culture for 3 more days, WST-8 (0.16 mg/mL) was added to the culture medium and the cells were cultured for 2 hr.” left out

[1] = Homo sapiens, 72 h, MV4-11, 3 days culture, read-out: growth suppressive activity on MV4-11 GI50
[2] = MV4-11, 3 days culture, read-out: growth suppressive activity on MV4-11 GI50
[3] = Homo sapiens, 72 h, MV4-11, chronic myeloid leukemia, 3 days culture, read-out: cell proliferation suppressive activity GI50

Compound	IC50 (BRD4) [nM]	GI50 (MV4-11; [2]) [nM]	further results
COC(=O)C[C@@H]1N=C(c2ccc(Nc3ccccc3)cc2)c2c(sc(C)c2C)-n2c(C)nnc21 [compound 8, methyl (S)-{2,3,9-trimethyl-4-(4-phenylaminophenyl)-6H-thieno[3,2-f][1,2,4]triazolo[4,3-a][1,4]diazepin-6-yl}acetate]			GI50 (MV4-11; [1]): 9 nM
CCOC(=O)C[C@@H]1N=C(c2ccc(Nc3cccnc3)cc2)c2c(sc(C)c2C)-n2c(C)nnc21 [compound 3]	54.9	20	
COC(=O)C[C@@H]1N=C(c2ccc(Nc3c(F)cc(F)cc3F)cc2)c2c(sc(CO)c2C)-n2c(C)nnc21 [compound 4]	77.2	95	
Cc1sc2c(c1C)C(c1ccc(Cl)cc1)=NC(CC(=O)Nc1ccc(N)cc1)c1nnc(C)n1-2 (stereo not drawn) [compound 15]	120	34	
COC(=O)C[C@@H]1N=C(c2ccc(Cl)cc2)c2c(sc(Cl)c2C)-n2c(C)nnc21 [compound 5]	54.2	73	
CONC(=O)C[C@@H]1N=C(c2ccc(Cl)cc2)c2c(sc(C)c2C)-n2c(C)nnc21 [compound 17]	12.8	14	
COC(=O)C[C@@H]1N=C(c2ccc(Cl)cc2)c2c(sc(C)c2C)-n2c(C)nnc21 [compound 6]	18.2	26	
Cc1sc2c(c1C)C(c1ccc(Cl)cc1)=NC(CC(=O)Nc1cccnc1)c1nnc(C)n1-2 (stereo not drawn) [compound 12]	108	30	
COC(=O)C[C@@H]1N=C(c2ccc(-c3cccc(C#N)c3)cc2)c2c(sc(C)c2C)-n2c(C)nnc21 [Compound 2, methyl (S)-{4-(3′-cyanobiphenyl-4-yl)-2,3,9-trimethyl-6H-thieno[3,2-f][1,2,4]triazolo[4,3-a][1,4]diazepin-6-yl}acetate]	121		GI50 (EBC-1): 207 nM; GI50 (PC-3): 199 nM; GI50 (Daudi): 67.4 nM; GI50 (A-2780): 130 nM; GI50 (MV4-11; [1]): 19 nM; GI50 (MV4-11; [3]): 19 nM; GI50 (HCT-116): 356 nM; GI50 (Kim-1): 104 nM; GI50 (MOLT-4): 106 nM; GI50 (RPMI-8226): 69.4 nM; GI50 (HL-60): 7 nM; GI50 (Saos2): 269 nM
COC(=O)C[C@@H]1N=C(c2ccc(-c3ccc(OC)cc3)cc2)c2c(sc(CO)c2C)-n2c(C)nnc21 [compound 7]	113	55	
Cc1sc2c(c1C)C(c1ccc(Cl)cc1)=NC(CC(=O)NCCO)c1nnc(C)n1-2 (stereo not drawn) [compound 14]		42	
CNC(=O)CC1N=C(c2ccc(Cl)cc2)c2c(sc(C)c2C)-n2c(C)nnc21 (stereo not drawn) [compound 13]	17.3	22	
COc1ccc(NC(=O)C[C@@H]2N=C(c3ccc(Cl)cc3)c3c(sc(C)c3C)-n3c(C)nnc32)cn1 [compound 16]	116	28	
COc1ncccc1NC(=O)C[C@@H]1N=C(c2ccc(Cl)cc2)c2c(sc(C)c2C)-n2c(C)nnc21 [compound 18]	147	48	
COC(=O)C[C@@H]1N=C(c2ccc(NC(=O)CCc3ccccc3)cc2)c2c(sc(C)c2C)-n2c(C)nnc21 [compound 10, methyl (S)-{2,3,9-trimethyl-4-[4-(3-phenylpropionylamino)phenyl]-6H-thieno[3,2-f][1,2,4]triazolo[4,3-a][1,4]diazepin-6-yl}acetate]	47.1		GI50 (MV4-11; [1]): 7 nM
CCOC(=O)C[C@@H]1N=C(c2ccc(N(C)c3ccc(F)cc3)cc2)c2c(sc(C)c2C)-n2c(C)nnc21 [compound 11]	225	95	
COC(=O)C[C@@H]1N=C(c2ccc(NCc3ccccc3)cc2)c2c(sc(C)c2C)-n2c(C)nnc21 [compound 9]	73.6	39	
Cc1sc2c(c1C)C(c1ccc(Cl)cc1)=N[C@@H](CC(=O)Nc1ccc(O)cc1)c1nnc(C)n1-2 [Compound 1, (S)-2-[4-(4-chlorophenyl)-2,3,9-trimethyl-6H-thieno[3,2-f][1,2,4]triazolo[4,3-a][1,4]diazepin-6-yl]-N-(4-hydroxyphenyl)acetamide]			GI50 (EBC-1): 491 nM; GI50 (PC-3): 1030 nM; GI50 (Daudi): 611 nM; GI50 (A-2780): 619 nM; GI50 (MV4-11; [3]): 60.7 nM; GI50 (HCT-116): 563 nM; GI50 (Kim-1): 569 nM; GI50 (MOLT-4): 80 nM; GI50 (RPMI-8226): 130 nM; GI50 (HL-60): 149 nM; GI50 (Saos2): 481 nM

Source: patent US9125915B2, “Antitumor agent” (Mitsubishi Tanabe Pharma Corporation, priority 2007, dated 2015)
